Drawing on ChEMBL document CHEMBL3425435, “4,6-Diarylaminothiazines as BACE1 Inhibitors and Their Use for the Reduction of Beta-Amyloid Production” (ACS Med Chem Lett, 2015), this text covers IC50 for nine molecules.

Sequence of Beta-secretase 1 (P56817 whole entry): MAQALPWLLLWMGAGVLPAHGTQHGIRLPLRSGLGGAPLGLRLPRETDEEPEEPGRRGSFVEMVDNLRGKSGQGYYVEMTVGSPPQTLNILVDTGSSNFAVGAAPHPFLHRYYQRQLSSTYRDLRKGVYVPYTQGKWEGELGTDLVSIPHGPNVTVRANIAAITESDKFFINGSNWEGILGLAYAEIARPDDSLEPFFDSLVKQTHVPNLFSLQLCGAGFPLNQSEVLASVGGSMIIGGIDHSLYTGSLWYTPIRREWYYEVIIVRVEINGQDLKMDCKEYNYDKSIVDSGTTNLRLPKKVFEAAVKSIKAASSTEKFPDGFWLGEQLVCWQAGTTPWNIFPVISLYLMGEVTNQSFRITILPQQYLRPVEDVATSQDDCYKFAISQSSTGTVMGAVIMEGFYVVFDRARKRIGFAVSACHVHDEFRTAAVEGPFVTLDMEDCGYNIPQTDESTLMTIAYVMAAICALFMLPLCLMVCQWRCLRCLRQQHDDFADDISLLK

The test concerns the target Beta-secretase 1 (Homo sapiens, UniProt P56817). As to the kind of experiment: Inhibition of BACE1 in human H4 cells stably transfected with APP751 containing Swedish mutation assessed as reduction in Abeta (1 to 40) and Abeta (1 to 42) production incubated for 19 hrs. It counts as cell-based.
As for `Cc1noc(C)c1[C@@H]1C[C@@H](c2cccc(-c3cncnc3)c2)N=C(N)S1`, the half-maximal inhibitory concentration (IC50) was 230 nM.
As for `Cc1noc(C)c1[C@@H]1C[C@@H](c2cc(-c3cncnc3)c(F)cc2F)N=C(N)S1`, the IC50 amounted to 200 nM.
With `Cc1noc(C)c1[C@@H]1C[C@@H](c2cc(-c3cccc(C#N)c3)cs2)N=C(N)S1` the figure was 300 nM; with `CC#Cc1cncc(-c2csc([C@@H]3C[C@@H](c4c(C)noc4C)SC(N)=N3)c2)c1`, 60 nM.
For the molecule `Cc1noc(C)c1[C@@H]1C[C@@H](c2cc(NC(=O)c3ccc(Br)cn3)ccc2F)N=C(N)S1`, the IC50 amounted to 22 nM.
With `Cc1noc(C)c1[C@@H]1C[C@@](C)(c2cc(-c3cncnc3)c(F)cc2F)N=C(N)S1`, the IC50 was 8 nM.
Then `CC#Cc1cncc(-c2cc(Cl)c([C@]3(C)C[C@@H](c4c(C)noc4C)SC(N)=N3)s2)c1`, with 30 nM; and `Cc1noc(CC(C)(C)O)c1[C@@H]1C[C@@](C)(c2ccc(F)cc2F)N=C(N)S1`, with 110 nM; and `Cc1noc(C)c1[C@@H]1C[C@@](C)(c2cc(-c3cccnc3C#N)c(F)cc2F)N=C(N)S1`, with 87 nM.

For orientation: IC50 means the concentration that inhibits the measured activity by half.
